For nine compounds, DC50 and Dmax results are on record in US20220370416A1, “COMPOUNDS AND METHODS FOR TARGETED DEGRADATION OF KRAS” (Arvinas Operations, Inc., priority 2020, published 2022).

The target in the assay is HiBit-KRAS^G12C (Homo sapiens, UniProt P01116, G12C). The assay is described as follows: HiBit degradation assay in SW1573 HiBit-KRas^G12C cells. It is filed as cell-based. Also noted: expressed in transfected cells; host or cells: SW1573 (clone E6), modified pcDNA3.1 vector, TK promoter. The conditions noted are these: 0.1% DMSO, 24 hours; for DC50: SW1573 HiBit-KRas^G12C, read-out: KRas^G12C-HIBit (SW1573; 0.1% DMSO) DC50*; for Dmax: SW1573, SW1573 HiBit-KRas^G12C, read-out: KRas^G12C-HiBit (SW1573; 0.1% DMSO) Dmax**. The gist of the method: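 SW1573 cells stably expressing N-terminally HiBit-tagged KRAS G12C, under the TK promoter, were treated 24 h at 37 °C with 10 μM to 20 nM compound in 0.1% or 0.5% DMSO. Residual HiBit luminescence normalised to DMSO and fitted with a 4-parameter model for DC50 and Dmax. Points with ≥50% viability loss (alamar blue) excluded.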
Sequence of HiBit-KRAS^G12C (P01116 1-186 isoform P01116-2 G12C limits assumed): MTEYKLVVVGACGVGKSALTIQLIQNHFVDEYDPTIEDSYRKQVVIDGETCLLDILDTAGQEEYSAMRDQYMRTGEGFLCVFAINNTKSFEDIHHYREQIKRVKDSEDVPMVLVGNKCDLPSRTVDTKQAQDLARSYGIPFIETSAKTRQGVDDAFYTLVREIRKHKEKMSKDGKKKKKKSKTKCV

As for `C=CC(=O)N1CCN(c2nc(O[C@H](C)CN3CCC(OCCOCCOCCOCCOc4cc(-c5scnc5C)ccc4CNC(=O)[C@@H]4C[C@@H](O)CN4C(=O)[C@@H](c4cc(C)no4)C(C)C)CC3)nc3c(F)c(-c4cc(O)cc5ccccc45)c(Cl)cc23)CC1` [Compound 76, (2S,4R)-N-({2-[2-(2-{2-[2-({1-[(2R)-2-{[6-chloro-8-fluoro-7-(3-hydroxynaphthalen-1-yl)-4-[4-(prop-2-enoyl)piperazin-1-yl]quinazolin-2-yl]oxy}propyl]piperidin-4-yl}oxy)ethoxy]ethoxy}ethoxy)ethoxy]-4-(4-methyl-1,3-thiazol-5-yl)phenyl}methyl)-4-hydroxy-1-[(2R)-3-methyl-2-(3-methyl-1,2-oxazol-5-yl)butanoyl]pyrrolidine-2-carboxamide], the DC50 was greater than 1 µM.
`C=CC(=O)N1CCN(c2nc(O[C@H](C)CN3CCC(OCCOc4cc(-c5scnc5C)ccc4CNC(=O)[C@@H]4C[C@@H](O)CN4C(=O)[C@@H](c4cc(C)no4)C(C)C)CC3)nc3c(F)c(-c4cc(O)cc5ccccc45)c(Cl)cc23)CC1` [Compound 78, (2S,4R)-N-({2-[2-({1-[(2R)-2-{[6-chloro-8-fluoro-7-(3-hydroxynaphthalen-1-yl)-4-[4-(prop-2-enoyl)piperazin-1-yl]quinazolin-2-yl]oxy}propyl]piperidin-4-yl}oxy)ethoxy]-4-(4-methyl-1,3-thiazol-5-yl)phenyl}methyl)-4-hydroxy-1-[(2R)-3-methyl-2-(3-methyl-1,2-oxazol-5-yl)butanoyl]pyrrolidine-2-carboxamide]: the DC50 is greater than 1 µM.
In the case of `C=CC(=O)N1CCN(c2nc(O[C@H](C)CN3CCC(OCCOCCOCCOCCOCCOc4cc(-c5scnc5C)ccc4CNC(=O)[C@@H]4C[C@@H](O)CN4C(=O)[C@H](c4cc(C)no4)C(C)C)CC3)nc3c(F)c(-c4cc(O)cc5ccccc45)c(Cl)cc23)CC1` [Compound 79, (2S,4R)-N-[(2-{[14-({1-[(2R)-2-{[6-chloro-8-fluoro-7-(3-hydroxynaphthalen-1-yl)-4-[4-(prop-2-enoyl)piperazin-1-yl]quinazolin-2-yl]oxy}propyl]piperidin-4-yl}oxy)-3,6,9,12-tetraoxatetradecan-1-yl]oxy}-4-(4-methyl-1,3-thiazol-5-yl)phenyl)methyl]-4-hydroxy-1-[(2S)-3-methyl-2-(3-methyl-1,2-oxazol-5-yl)butanoyl]pyrrolidine-2-carboxamide], the DC50 was greater than 1 µM.
`C=CC(=O)N1CCN(c2nc(O[C@H](C)CN3CCC(OCCOCCOCCOCCOCCOc4cc(-c5scnc5C)ccc4CNC(=O)[C@@H]4C[C@@H](O)CN4C(=O)[C@@H](c4cc(C)no4)C(C)C)CC3)nc3c(F)c(-c4cc(O)cc5ccccc45)c(Cl)cc23)CC1` [Compound 80]: the Dmax lay within 35 to 70% and the DC50 is greater than 1 µM.
As to `C=CC(=O)N1CCN(c2nc(OC[C@@H]3C[C@@H](OCCOCCOCCOCCOCCOCCOCC(=O)N[C@H](C(=O)N4C[C@H](O)C[C@H]4C(=O)N[C@@H](C)c4ccc(-c5scnc5C)cc4)C(C)(C)C)CN3C)nc3c2CCN(c2cccc4ccccc24)C3)C[C@@H]1CC#N` [Compound 81, (2S,4R)-1-[(2S)-2-(20-{[(3R,5S)-5-[({4-[(3S)-3-(cyanomethyl)-4-(prop-2-enoyl)piperazin-1-yl]-7-(naphthalen-1-yl)-5H,6H,7H,8H-pyrido[3,4-d]pyrimidin-2-yl}oxy)methyl]-1-methylpyrrolidin-3-yl]oxy}-3,6,9,12,15,18-hexaoxaicosanamido)-3,3-dimethylbutanoyl]-4-hydroxy-N-[(1S)-1-[4-(4-methyl-1,3-thiazol-5-yl)phenyl]ethyl]pyrrolidine-2-carboxamide], the DC50 is greater than 1 µM.
For `C=CC(=O)N1CCN(c2nc(O[C@H](C)CN3CCC(OCCOCCOCCOCCOCCOCCOCCOCCOCCOCCOCC(=O)N[C@H](C(=O)N4C[C@H](O)C[C@H]4C(=O)N[C@@H](C)c4ccc(-c5scnc5C)cc4)C(C)(C)C)CC3)nc3c(F)c(-c4cc(O)cc5ccccc45)c(Cl)cc23)CC1` [Compound 83, (2S,4R)-1-[(2S)-2-[32-({1-[(2R)-2-{[6-chloro-8-fluoro-7-(3-hydroxynaphthalen-1-yl)-4-[4-(prop-2-enoyl)piperazin-1-yl]quinazolin-2-yl]oxy}propyl]piperidin-4-yl}oxy)-3,6,9,12,15,18,21,24,27,30-decaoxadotriacontanamido]-3,3-dimethylbutanoyl]-4-hydroxy-N-[(1S)-1-[4-(4-methyl-1,3-thiazol-5-yl)phenyl]ethyl]pyrrolidine-2-carboxamide], the DC50 is greater than 1 µM.
For the compound `C=CC(=O)N1CCN(c2nc(O[C@H](C)CN3CCC(OCCOCCOCCOCCOCCOCCOCCOCCOCC(=O)N[C@H](C(=O)N4C[C@H](O)C[C@H]4C(=O)N[C@@H](C)c4ccc(-c5scnc5C)cc4)C(C)(C)C)CC3)nc3c(F)c(-c4cc(O)cc5ccccc45)c(Cl)cc23)CC1` [Compound 84, (2S,4R)-1-[(2S)-2-[26-({1-[(2R)-2-{[6-chloro-8-fluoro-7-(3-hydroxynaphthalen-1-yl)-4-[4-(prop-2-enoyl)piperazin-1-yl]quinazolin-2-yl]oxy}propyl]piperidin-4-yl}oxy)-3,6,9,12,15,18,21,24-octaoxahexacosanamido]-3,3-dimethylbutanoyl]-4-hydroxy-N-[(1S)-1-[4-(4-methyl-1,3-thiazol-5-yl)phenyl]ethyl]pyrrolidine-2-carboxamide], the DC50 was greater than 1 µM.
`C=CC(=O)N1CCN(c2nc(OC[C@@H]3C[C@@H](OCCOc4cc(-c5scnc5C)ccc4CNC(=O)[C@@H]4C[C@@H](O)CN4C(=O)[C@@H](c4cc(C)no4)C(C)C)CN3C)nc3c2CCN(c2cccc4ccccc24)C3)C[C@@H]1CC#N` [Compound 87, (2S,4R)-N-{[2-(2-{[(3R,5S)-5-[({4-[(3S)-3-(cyanomethyl)-4-(prop-2-enoyl)piperazin-1-yl]-7-(naphthalen-1-yl)-5H,6H,7H,8H-pyrido[3,4-d]pyrimidin-2-yl}oxy)methyl]-1-methylpyrrolidin-3-yl]oxy}ethoxy)-4-(4-methyl-1,3-thiazol-5-yl)phenyl]methyl}-4-hydroxy-1-[(2R)-3-methyl-2-(3-methyl-1,2-oxazol-5-yl)butanoyl]pyrrolidine-2-carboxamide]: the Dmax is 35 to 70% and the DC50 was greater than 1 µM.
Turning to `C=CC(=O)N1CCN(c2nc(O[C@H](C)CN3CCC(OCCOCCOCCOCCOCCOCCOCC(=O)N[C@H](C(=O)N4C[C@H](O)C[C@H]4C(=O)N[C@@H](C)c4ccc(-c5scnc5C)cc4)C(C)(C)C)CC3)nc3c(F)c(-c4cc(O)cc5ccccc45)c(Cl)cc23)CC1` [Compound 88, (2S,4R)-1-[(2S)-2-[20-({1-[(2R)-2-{[6-chloro-8-fluoro-7-(3-hydroxynaphthalen-1-yl)-4-[4-(prop-2-enoyl)piperazin-1-yl]quinazolin-2-yl]oxy}propyl]piperidin-4-yl}oxy)-3,6,9,12,15,18-hexaoxaicosanamido]-3,3-dimethylbutanoyl]-4-hydroxy-N-[(1S)-1-[4-(4-methyl-1,3-thiazol-5-yl)phenyl]ethyl]pyrrolidine-2-carboxamide], the DC50 is greater than 1 µM.
